| melting point [°C] | SMILES |
| --- | --- |
| 77 to 78 | CC(Cc1c[nH]c2ccccc12)(NC(=O)OC1C2CC3CC(C2)CC1C3)C(=O)NC(CN=[N+]=[N-])Cc1ccccc1 (configuration not stated) |
| 73 to 73.5 | Cc1cc(C)c(NC(=O)OC(C)(C)C)c(C)c1 |
| 74 to 77 | Cc1ccc(S(=O)(=O)OCC2Cc3cc(Cl)cc(C(C)(C)C)c3O2)cc1 (configuration not stated) |
| 144 to 146 | CCC(=O)c1[nH]c2cc(Cl)ccc2c1N |
| 231 to 234 | CC(=O)Nc1ccc(CSc2nc3cnccc3[nH]2)cc1 |
| 197 to 200 | CCOC(=O)c1cn(-c2nc(NCc3ccc(OC)cc3)c(F)cc2F)c2c(Cl)c(F)c(F)cc2c1=O |
| 190 to 191 | COC(=O)c1nc2nn(-c3ccccc3)c(C)c2c(N)c1C(=O)OC |
| 155 to 156 | CCOC(=O)C1=C(C)NC(=S)N(C(=O)OCC)C1c1cccc(C#N)c1 (configuration not stated) |
| > 250 | O=C(O)c1ccc2cn[nH]c2c1 |
| 294 | O=C(O)c1cc2cc([N+](=O)[O-])cc(O)c2o1 |
| 130 | CCOc1ccc2c(c1)C(C)(c1cc(C(=O)N3CC4CCN(C)C4C3)ccc1Cl)C(=O)N2S(=O)(=O)c1ccc(C(=O)NC(C)(C)C)cc1OC (configuration not stated) |
| 131 | Cc1cc([N+](=O)[O-])c(NCCO)c([N+](=O)[O-])c1 |
| 211 to 212 | O=C(O)c1cc(NCc2ccc([N+](=O)[O-])cc2)ccc1O |
| 73 to 75 | CCOc1ccc(OCCOCCOC)c2c1C(=O)N(CSc1ccccc1)S2(=O)=O |
| 124 to 127 | CCOC(=O)Cc1csc(NC(=O)C(N)Cc2ccc(F)cc2)n1 (configuration not stated) |
| 139 to 141 | CCC(C)(C)c1ccc(OCC(=O)Nc2cccc(C(=O)Nc3[nH]n(-c4c(Cl)cc(Cl)cc4Cl)c(=O)c3Br)c2)c(C(C)(C)CC)c1 |
| 62 to 64 | CC(=CC(=O)c1cccnc1)N(C)C |
| 104 to 105 | CC(C)(C)OC(=O)NC(CO)COc1noc2ccc(NC=O)cc12 (configuration not stated) |

| melting point [°C] | SMILES |
| --- | --- |
| 134 to 135 | COc1cccc(CC(=O)O)c1OCCCc1cn(-c2ccc(C(F)(F)F)cn2)nc1-c1ccccc1 |
| 72 | C=C(C)CC(NC=O)(C(=O)OCC)C(=O)OCC |
| 120 to 123 | CN(C)S(=O)(=O)OCCOc1ccc(-n2ccnc2)cc1 |
| 130 to 131 | CCN(C(=O)OC)c1cn2cc(Sc3ccccc3)ccc2n1 |
| 160 to 161 | Cc1nc2c(N)nc3ccccc3c2n1CCCCNC(=O)C(C)C |
| 218 to 222 | COc1ccc(C[C@H]2Cc3cc(C)cnc3[C@H](C)C2)cc1 |
| 217 | CCC1OC(=O)N(CCc2ccc(NC(=O)c3sc(C)nc3C)cc2)N=C1c1ccc(OC)c(OC)c1 (configuration not stated) |
| 193 to 195 | Cc1ccc2c(=O)c(CS(C)(=O)=O)cn(C)c2c1 |
| 104 to 105 | COc1ccc2c(n1)c(CCNC(=O)c1ccco1)c1n2CCCC1 |
| > 300 | COc1ccc(C(=O)Nc2c(Cl)cncc2Cl)c2c1oc1ccc(NC(=O)C(F)(F)F)cc12 |
| 123 to 137 | CC(Cc1c[nH]c2ccccc12)(NC(=O)OC1C2CC3CC(C2)CC1C3)C(=O)NC(CC(=O)O)Cc1ccccc1 (configuration not stated) |
| 110 | CCCCCCNC(=O)Oc1cccc(NC(=O)CC(C)(OC)OC)c1 |
| 179 to 180 | Cc1cc(Br)ccc1S(N)(=O)=O |
| 292 to 293 | N=C(N)c1ccc(S(=O)(=O)NCCc2ccc(OCC(=O)O)cc2)cc1 |
| 106 to 108 | CC(=O)OCCc1cc2c(s1)SCCC1CC(=O)NN=C21 (configuration not stated) |
| 106 to 108 | COc1cccc(/C=C/C(=O)/C=C/c2cccc(OC)c2OC)c1OC |
| 126 | COc1ccc(CNc2nc(CCC(=O)O)nc3sc(Cl)cc23)cc1Cl |
| 262 to 265 | Cc1cc(C(C)(C)C)c(OC(=O)c2ccccc2C(=O)Oc2c(C(C)(C)C)cc(C)cc2C(C)(C)C)c(C(C)(C)C)c1 |

Second part, the molecule before the results:

| SMILES | melting point [°C] |
| --- | --- |
| CCCCN(CC)c1cc(C)nc(Sc2c(C)cc(C)cc2C)c1 | 110 to 112 |
| COc1ccc(/C=C/C(=O)C2C(=O)CC(c3ccc(OC)cc3)C([N+](=O)[O-])C2C2CCCCC2)cc1 (configuration not stated) | 203 to 205 |
| CNc1ccc(C)nc1N | 112 to 113 |
| Cc1nc(C(C)C)c(S(=O)(=O)c2ccccc2)n1COCc1ccccc1 | 116 to 117 |
| O=C(Nc1ccccc1NS(=O)(=O)c1ccc([N+](=O)[O-])cc1)c1ccc(F)cc1 | 265 to 266 |
| CCOC(=O)c1cc2c(O)nncc2nc1N1CCCCC1 | 178 to 179 |
| Nc1ncc2cc(-c3c(Cl)cccc3Br)c(N)nc2n1 | 264 to 280 |
| O=C(NCC1CCOCC1)NC12CC3CC(CC(C3)C1)C2 | 196 to 198 |
| CC(C)c1cc(-c2ccccc2)nc(-c2ccc(F)cc2)c1C=C(Br)Br | 124 to 126 |
| O=[N+]([O-])c1ccc(Cl)nc1Nc1ccccc1 | 95 to 98 |
| COC(=O)C1CCC2C3CCC4CC(OC(C)=O)CCC4(C)C3C(NC3CCCCC3)CC12C (configuration not stated) | 126 to 128 |
| COc1ccc(C(=O)N2CCc3cc(S(=O)(=O)N4CC(c5ccccc5)NC4=O)ccc32)cc1OC (configuration not stated) | 178 to 179 |
| O=C(O)/C=C/c1ccc(C(=O)c2c(-c3ccc(O)cc3)sc3cc(O)ccc23)cc1 | 155 to 160 |
| O=C(O)COc1ccc2cc(-c3csc(-c4ccccc4)n3)ccc2c1Br | 222 to 230 |
| COc1ccc(S(=O)(=O)N2C(=O)C(CC(=O)N3CCN(c4ccccn4)CC3)(c3ccccc3Cl)c3cc(C)ccc32)c(OC)c1 (configuration not stated) | 239 |
| CCCCCCCCc1ncc([N+](=O)[O-])n1C | 141 |
| Cc1cc(C)cc(Sc2c(C(C)C)c(=O)[nH]c(=O)n2CCC2C=CCC2)c1 (configuration not stated) | 138 to 140 |
| C=CCOc1ccc(-c2cc(N)n[nH]2)cc1 | 158 to 159 |
| CCCN(C)c1nc(N)nc2c1ncn2C1CC(F)C(CO)O1 (configuration not stated) | 80 to 84 |
| NS(=O)(=O)c1ccc(-c2cnn(-c3ccc(F)cc3)c(=O)c2Oc2ccc(F)cc2)cc1 | 227 to 229 |
| CC(O)/C=C/c1ncn2c1CN(C)C(=O)c1c(Cl)cccc1-2 (configuration not stated) | 232 to 233 |

| SMILES | melting point [°C] |
| --- | --- |
| CC(CN1CCn2c(c(-c3ccccc3)c3cc(Cl)ccc32)C1=O)N(C)C (configuration not stated) | 151 to 152 |
| O=c1oc(-c2cccc(C(F)(F)F)c2)cc(O)c1SCc1ccccc1 | 152 to 153 |
| C/C(=N\O)c1cccc(-c2nc3sccn3c2-c2ccnc(N[C@@H]3CCCN(S(=O)(=O)c4ccc(Cl)cc4)C3)n2)c1 | 156 to 158 |
| C=CCCCn1c(=O)sc2c(=O)[nH]c(N)nc21 | 240 to 243 |
| O=c1[nH]c(Cc2cccc(O)c2)cc2ccccc12 | 225 to 227 |
| OCc1csc(-n2cccc2)n1 | 111 to 113 |
| CCCCCCCCCCCCCCCCN1CCN(c2ccc(C=CC(=O)O)cc2)CC1 | 251 to 253 |
| Cc1ccc(OCc2ccccc2)c(C(CCN2CC3CC3(C)C2)c2ccccc2)c1 (configuration not stated) | 74.9 to 76 |
| COc1ccc([N+](=O)[O-])c(C=CN2CCCC2)c1Cl | 89 to 92 |
| O=C1Cc2cc3c(cc2C(c2ccccc2)=NN1c1ccc([N+](=O)[O-])cc1)OCO3 | > 200 |
| NC(=O)c1cccc(-c2cccc3cc(Cc4cc(F)cc(C(F)(F)F)c4)sc23)c1 | 147 to 148 |
| Cc1nc2c(N)nc3ccccc3c2n1CC1(O)CCCC1 | 306 to 308 |
| Fc1ccc(-c2ccn(CC3CCCNC3)c2-c2ccncc2)cc1 (configuration not stated) | 134 to 135 |
| CCCCc1nc2cccc(C(=O)OC)c2n1Cc1ccc(-c2ccccc2N)cc1 | 97 to 99 |
| Nc1ncc(C#Cc2ccc(Cl)cc2)c(OC2CCC(=O)CC2)n1 | 168 to 172 |
| CN(C)c1ccc(C=Nn2ccnc2CCc2ccccc2)cc1 | 153 to 154 |
| CCCCCCCCCCCCC1(C(C(=O)Nc2c(C(C)C)cccc2C(C)C)c2ccccc2)C=CNO1 (configuration not stated) | 107 to 108 |
| O=C(O)C1=C(c2ccccc2)c2cc(Cl)ccc2OC1C(F)(F)F (configuration not stated) | 226 to 227 |
| NCc1ccc2c(c1)C(=O)c1ccccc1C2=O | 170 to 178 |
| Clc1cccc(Nn2cnc3c2CCCC3)c1 | 180 |
| CCCCCCCc1ccc(-c2ccc(-c3cc(F)cc(F)c3)cc2)nc1 | 185 to 186 |

| SMILES | melting point [°C] |
| --- | --- |
| CN(C)C(=N[N+](=O)[O-])NCc1ccc(Cl)nc1 | 160 to 162 |
| N=S1C(n2c(S)nnc2-c2ccc(O)cc2)=CC=C1[N+](=O)[O-] (configuration not stated) | 275 to 276 |
| COc1nc2c(C)cc(C)cc2c(-c2ccccc2Cl)c1N(C(N)=O)c1ccc(F)cc1F | 231 to 232 |
| O=C1c2ccc([N+](=O)[O-])c3c([N+](=O)[O-])ccc(c23)C(=O)N1O | 290 to 291 |
| CCCCCC(O)CCc1ccc(CCCCCCCC(=O)O)o1 (configuration not stated) | 43 to 45 |
| c1coc(Cn2c(NC3CCNCC3)nc3cccnc32)c1 | 159 |
| CCN1C(=O)CC[C@@H]2c3ccc(Cl)cc3CC[C@H]21 | 108 to 110 |
| CCOC(=O)CC(=O)c1cc(F)c(OP(=O)(Oc2ccccc2)Oc2ccccc2)nc1Nc1ccc(F)cc1F | 85 to 86 |
| O=C1OC(Cl)(Cl)c2c(Cl)c(Cl)c(Cl)c(Cl)c21 | 136 to 138 |
| CCCn1cc(C(=O)NCc2ccc(Cl)cc2)c(=O)c2cc(C#CCO)ccc21 | 183 to 184 |
| COCCOCc1c(CN(C)CC(O)c2cccnc2)sc2c(=O)c(C(=O)NCc3ccc(Cl)cc3)cn(C)c12 (configuration not stated) | 129 to 132 |
| O=C(COc1ccccc1C1NC(C(=O)O)CS1)NCCO[N+](=O)[O-] (configuration not stated) | 99 to 103 |
| OC1CSC(Oc2cccnc2-c2ccc(OC(F)(F)F)cc2)C(O)C1O (configuration not stated) | 114 to 119 |
| FC(F)(F)Oc1ccc(Nc2cc(N3CCOCC3)nc(-c3ccccc3)n2)cc1 | 144 to 146 |
| CSc1nc(C)cc(-c2ccc(C(F)(F)F)cc2)n1 | 77 to 80 |
| O=C1C(=c2[nH]c(=c3[nH]c(=C4C(=O)c5ccccc5C4=O)c4ccccc34)c3ccccc23)C(=O)c2ccccc21 | > 300 |
| Cc1sc(C(=O)NN)c(S(N)(=O)=O)c1C#N | 186 to 191 |
| CCN(Cc1ccc(F)nc1)C(=S)NC | 123 to 124 |
| NC(=O)N1CCC(c2nn(-c3ccccc3)c3cc(Cl)ccc23)CC1 | 148 to 150 |
